# Data from patent publication US20130085106A1, “METHODS AND FORMULATIONS FOR OXYTOCIN TREATMENT OF SUBSTANCE USE, PSYCHIATRIC AND OTHER DISORDERS” (THE UNIVERSITY OF NORTH CAROLINA AT CHAPEL HILL, priority 2010, published 2013).
# Ends that are not written are not given here.
# Columns and labels:
# [1] = tested on: alcohol dependent patients; assay: Double-blind, placebo controlled trial of twice daily intranasal oxytocin for alcohol withdrawal (Example 2); format: in vivo, human
# Description: This is a double-blind, placebo controlled comparison of the efficacy of twice daily intranasal administration of oxytocin and placebo (saline) in reducing alcohol withdrawal symptoms, the number of bouts of withdrawal during which symptoms are of sufficient magnitude requiring lorazepam treatment (see definitions below) and the amount of lorazepam required to resolve withdrawal bouts. Treatment group assignment are random within each sex. Subjects are patients admitted to UNC Hospitals or the UNC CTRC for medical detoxification. Each treatment group is composed of up to 40 subjects. The study statistician constructs a randomization plan to randomize 80 subjects to 2 groups of 40 subjects each with a blocksize of 4. This is a permuted blocksize as this is a blind study.
# Informed consent is obtained the morning after admission to the UNC Hospitals medical units or before the outpatient screening evaluation before admission to the UNC CTRC. After consent is obtained, subjects are randomly assigned to a treatment group (oxytocin or placebo). Prior to receiving their first intranasal treatment, an ECG is obtained and blood drawn to obtain serum for assay of cytokine and allopregnanolone concentrations. Subjects also rate their symptoms using the Alcohol Withdrawal Symptom Checklist (AWSC, Pittman et al., Alcohol Clin. Exp. Res. 31: 612-618 (2007)) prior to receiving their first test dose. These procedures are done/overseen by research nurses or physicians. Subjects usually receive their first intranasal test dose between 1000 and 1200 hours, which consists of 6 insufflations of SYNTOCINON® Spray (approximately 24 IU) or placebo, with each insufflation given 30 seconds apart and alternating between nostrils. Test doses taken again at 1700 hr later that day (Admission Day 1) and at 0900 and 1700 hr on Admission Days 2 and 3. Oxytocin test treatments are administered from 5 ml intranasal spray vials designed to deliver 0.1 ml metered volume per insufflation. The placebo treatments are administered from 60 ml intranasal spray vials (each containing 30 ml of solution) also designed to deliver 0.1 ml metered volume per insufflation. Vials containing oxytocin and placebo spray are blind labeled by the UNC Investigational Drug Service. Research nurses or physicians oversee subject self-administration of all intranasal test doses. After enrollment on Admission day 1 and in the morning on Admission days 2 and 3, subjects are given multiple copies of the AWSC questionnaire and requested to complete one each time the unit nurses do CIWA ratings. These questionnaires are retrieved by research staff the following morning. Shortly after the morning test dose on Admission days 2 and 3, subjects complete the Alcohol Craving Visual Analog Scales (ACVAS), the Penn Alcohol Craving Scale (PACS), and the Profile of Mood States (McNair et al., (1971) EDITS manual for the profile of mood states. San Diego, Calif. Educational and Industrial Testing Service). In addition, a consumption diary is administered and given to the subject to quantify the amount of alcohol participants have been consuming prior to admission in the study. On Days 2 and 3, research nurses also draw (and subsequently process) blood serum samples to assay cytokine and allopregnanolone concentrations shortly after the morning test dose. Additional blood is drawn after the morning test dose on admission day 2 to obtain serum for tests to be run (magnesium, Cl, Ca, Na, K, BUN, creatinine, and GGT). Another ECG is also obtained shortly after the morning test treatment on Admission day 2. Research staff retrieves on a daily basis CIWA ratings and vital sign measurements obtained on each subject from their electronic medical record.
# In all subjects, lorazepam doses are administered PO or IV (if subjects cannot take medication PO) whenever CIWA ratings are ≧12. CIWA ratings are obtained 1 hr after the initial dose of lorazepam and another dose administered if CIWA ratings ≧10. […]
# [2] = tested on: patients with paranoid or undifferentiated schizophrenia; assay: Randomized, double blind, placebo-controlled 2-week intranasal oxytocin trial in schizophrenia (Example 7); format: in vivo, human
# Description: Twenty-three subjects were initially enrolled; 2 dropped out before randomization to treatment and 1 dropped out early because they developed an upper respiratory infection; the remaining 20 completed the protocol and constitute our study sample. Inclusion criteria were: 18-55 years of age, DSM-IV diagnosis of paranoid or undifferentiated schizophrenia ≧1 year, PANSS total score ≧60, PANSS suspiciousness/persecutory item score ≧4 or 3 on this item and ≧3 on at least one other social behavior-relevant PANSS item (hostility, passive/apathetic social withdrawal, uncooperativeness, active social withdrawal), treatment with one or more standard antipsychotic medications, stability of medication doses and symptoms ≧1 month.
# (§1) This was a randomized, double blind, placebo-controlled 2-week treatment trial. Screening of each subject included a review of psychiatric and medical history, physical examination, an ECG, and blood and urine collection for standard laboratory tests. Within 1 week after screening, baseline social cognition measures were obtained followed by psychiatric ratings. Daily intranasal treatments were initiated after baseline assessments. Social cognition measures and psychiatric ratings were repeated beginning 50 minutes after the AM dose of study medication on treatment day 14. The social cognition instruments were the Brüne Theory of Mind Picture Stories Task (Brüne, (2003) Social cognition and behaviour in schizophrenia. In Brüne, Ribbert, Schiefenhövel (eds.) The social brain-evolution and pathology. John Wiley & Sons; Chichester, pp. 277-313) and the Trustworthiness Task (Adolphs et al., Nature 393: 470-474 (1998)). Psychiatric measures included the Positive and Negative Symptom Scale (PANSS) (Kay et al., Schizophr. Bull. 13: 261-276 (1987))) and the Paranoia Scale (Fenigstein & Vanable, J. Pers. Soc. Psych. 62: 129-138 (1992))). The first 10 subjects were studied as inpatients on a clinical research unit and the last 10 subjects were studied in an outpatient research clinic. Blood and urine laboratory tests, ECGs and body weights were obtained at screening and treatment day 14 in all subjects and also on treatment days 3 and 7 in inpatients.
# (§2) Subjects remained on their pre-study medication regimen and doses throughout the treatment trial. They self-administered intranasal study drug twice daily; before breakfast and before dinner. Each dose consisted of six 0.1 ml insufflations (alternating between the left and right nostril) of oxytocin spray containing approximately 24 international units of oxytocin (SYNTOCINON® Spray, Novartis) or placebo. Outpatient compliance with test treatments was monitored by weighing spray vials before they were dispensed and after the morning dose on treatment day 14.
# All dependent variables were examined for normality and skewness prior to analyses. We compared oxytocin and placebo group means using an unpaired t test for the following baseline variables: demographic, psychiatric history and diagnosis, inpatient versus outpatient status, social cognition and psychiatric measures. We performed a paired t test within each treatment group examining changes from baseline to two weeks on the following variables: biological (laboratory test values, vital signs), social cognition measures (Brüne Task, Trustworthiness Task), and psychiatric measures (PANSS total and subscales, Paranoia Scale). To compare the treatment groups over time on social cognition and psychiatric variables, we used analysis of covariance controlling for the baseline measure of the dependent variable.
# [3] = tested on: subjects with schizophrenia; assay: Expanded two-week intranasal oxytocin study in schizophrenia, 25 subjects (Example 8); format: in vivo, human; details: for Brüne 2nd false belief, M / Brüne 3nd false belief, M / Brüne deception, M / PANSS general score, M / PANSS negative score, M / PANSS positive score, M / PANSS social items mean (suspiciousness, hostility, social withdrawal passive/active, uncooperativeness), M / PANSS total score, M / Paranoia Scale, M / Trustworthiness task (ratings of untrustworthy faces), M: N = 14
# Description: as §1, §2
# We have expanded our double blind, placebo-controlled pilot study described in Example 7 to include 25 subjects with schizophrenia in which we compared the effects of 14 days of twice daily intranasal oxytocin (24 IU/dose, N=14) vs. placebo (N=11) administration on PANSS (Positive and Negative Symptom Scale) total and PANSS item scores, subject self-ratings on the Paranoia Scale and performance on social cognition tests (the Brüne Theory of Mind Picture Stories Task and the Trustworthiness Task). As in the smaller study, all subjects' symptoms and psychotropic medication regimens were stable for ≧1 month prior to the treatment trial. Medication doses remained the same during the study period.
# Because of our interest in oxytocin effects on social function in schizophrenia, we focused our statistical analysis on an a priori subset of PANSS items: P6 (suspiciousness/persecution [paranoia]), P7 (hostility), N4 (passive/apathetic social withdrawal), G8 (uncooperativeness) and G16 (active social avoidance). These items were used as inclusion criteria for this study (see description in Example 7). Values on these items are highly correlated in our sample (Cronbach's alpha=0.84).
# [4] = Burbach et al., Eur. J. Pharmacol. 94: 125-131 (1983); cited from earlier work
# [5] = ANCOVA controlling for baseline, 14-day treatment
molecule,measurement,setting,value
"CC[C@H](C)[C@@H]1NC(=O)[C@H](Cc2ccc(O)cc2)NC(=O)[C@@H](N)CSSC[C@@H](C(=O)N2CCC[C@H]2C(=O)N[C@@H](CC(C)C)C(=O)NCC(N)=O)NC(=O)[C@H](CC(N)=O)NC(=O)[C@H](CCC(N)=O)NC1=O [Oxytocin, oxytocin]",adverse events,"[1]; 3 days of protocol, all 10 subjects",no unexpected adverse events
same,"Total lorazepam (mg) required to control withdrawal symptoms, Mean","[1]; 3 days of protocol, intranasal approx. 24 IU twice daily, N=6",2.33 mg
same,Mean CIWA Day 1,"[1]; Day 1, intranasal approx. 24 IU twice daily, N=6",2.40
same,Mean AWSC Day 1,"[1]; Day 1, self-rating, N=6",6.17
same,Mean ACVAS Day 2,"[1]; Day 2, 100 mm Alcohol Craving Visual Analog Scale, N=6",33.83
same,Mean CIWA Day 2,"[1]; Day 2, N=6",0.81
same,Mean PACS Day 2,"[1]; Day 2, Penn Alcohol Craving Scale, N=6",13.33
same,Mean AWSC Day 2,"[1]; Day 2, self-rating, N=6",5.40
same,Mean ACVAS Day 3,"[1]; Day 3, 100 mm Alcohol Craving Visual Analog Scale, N=6",11.23
same,Mean CIWA Day 3,"[1]; Day 3, N=6",1.52
same,Mean PACS Day 3,"[1]; Day 3, Penn Alcohol Craving Scale, N=6",9.33
same,Mean AWSC Day 3,"[1]; Day 3, self-rating, N=6",3.78
same,subjects that required no lorazepam treatment at all,"[1]; oxytocin treatment group, 3-day detoxification",4 of the 6
same,"PANSS general subscale scores, LS mean",[2]; [5],34.34
same,"PANSS total scores, Least squared (LS) mean",[2]; [5],70.56
same,group differences in change over the treatment period for other PANSS or social cognition variables,"[2]; ANCOVA, oxytocin vs placebo",no group differences
same,decline in PANSS general subscale scores compared to placebo,"[2]; ANCOVA, F=3.78, p=0.069",trend toward a significantly greater decline
same,decline in PANSS total scores compared to the placebo group,"[2]; ANCOVA, F=4.60, p=0.047",significantly greater decline
same,"change in other Brüne Task measures (second order belief, third order false belief, recognition of cheating)",[2]; baseline to treatment day 14,no changes that approached significance
same,declines in PANSS positive symptom subscale scores compared to the Placebo group,"[3]; ANOVA, F=3.10, p=0.0923",trends toward significantly greater declines
same,declines in PANSS social items mean scores compared to the Placebo group,"[3]; ANOVA, F=3.15, p=0.0898",trends toward significantly greater declines
same,decline in PANSS total score compared to the Placebo group,"[3]; ANOVA, F=4.29, p=0.05",significantly greater decline
same,"Brüne 2nd false belief, M",[3]; Baseline,1.93
same,"Brüne 3nd false belief, M",[3]; Baseline,1.93
same,"Brüne deception, M",[3]; Baseline,2.43
same,"PANSS general score, M",[3]; Baseline,38.21
same,"PANSS negative score, M",[3]; Baseline,20.36
same,"PANSS positive score, M",[3]; Baseline,19.79
same,"PANSS social items mean (suspiciousness, hostility, social withdrawal passive/active, uncooperativeness), M",[3]; Baseline,2.91
same,"PANSS total score, M",[3]; Baseline,79.00
same,"Paranoia Scale, M",[3]; Baseline,48.00
same,"Trustworthiness task (ratings of untrustworthy faces), M",[3]; Baseline,−15.71
same,"PANSS total score, M","[3]; Tx Day 14, 24 IU/dose intranasal twice daily",69.21
same,"Brüne 2nd false belief, M",[3]; Tx Day 14,2.29
same,"Brüne 3nd false belief, M",[3]; Tx Day 14,2.43
same,"Brüne deception, M",[3]; Tx Day 14,2.86
same,"PANSS general score, M",[3]; Tx Day 14,34.07
same,"PANSS negative score, M",[3]; Tx Day 14,18.00
same,"PANSS positive score, M",[3]; Tx Day 14,17.14
same,"PANSS social items mean (suspiciousness, hostility, social withdrawal passive/active, uncooperativeness), M",[3]; Tx Day 14,2.39
same,"Paranoia Scale, M",[3]; Tx Day 14,45.00
same,"Trustworthiness task (ratings of untrustworthy faces), M",[3]; Tx Day 14,−10.36
"oxytocin fragment 4-9: biologically active fragment of oxytocin, reported to be more potent than the full-length molecule (QNCPLG; ends and bridges not checked; UniProt P01178 23-28, looked up, fragment)",potency relative to the full-length molecule,[4],more potent than the full-length molecule
